{"source": "patent US10563263B2", "about": "“Genetic polymorphisms associated with statin response and cardiovascular diseases, methods of detection and uses thereof” (CELERA CORPORATION, priority 2010, dated 2020)", "system": "CVD (CHD or stroke)", "experiment": "WOSCOPS: SNP by pravastatin treatment interaction, logistic regression (synergy index), CVD endpoint", "format": "in vivo, human", "conditions": "for OR (synergy index), WOSCOPS, Prava vs Placebo: CVD endpoint, Caseonly; for OR (SNP x pravastatin treatment interaction): WOSCOPS pravastatin vs placebo", "text": "CARE was a secondary prevention trial and WOSCOPS was a primary prevention trial.\nThe CHD endpoint was defined in the analyses herein of CARE as a composite endpoint of fatal CHD, definite non-fatal MI, or revascularization, and was defined in the analyses herein of WOSCOPS as a composite endpoint of death from CHD, nonfatal MI, or revascularization. In both the CARE and WOSCOPS analyses herein, the CVD endpoint was defined as a composite endpoint of CHD or stroke. […] Revascularization, which can include percutaneous transluminal coronary angioplasty (PTCA), stent placement, and coronary artery bypass graft (CABG), are medical interventions that indicate the presence of CHD.\nCohort and case-only study designs were used to identify SNPs associated with response to statin treatment.\nFor each SNP, a logistic regression model having treatment status as the dependent variable and SNP as the independent predictor variable was performed, with terms for age, sex and race included in the model as covariates. The anti-log of the regression coefficient corresponding to the SNP is an estimate of the synergy index (SI) (Davis et al., “Imputing gene-treatment interactions when the genotype distribution is unknown using case-only and putative placebo analyses-a new method for the Genetics of Hypertension Associated Treatment (GenHAT) study”, Statistics in Medicine 23: (2004), pages 2413-2427). The SI is a ratio of odds ratios: for example in the CARE and WOSCOPS studies, the SI represents the factor by which the odds-ratio of statin treatment, compared with placebo, among major homozygous individuals is multiplied by in order to obtain the odds-ratio of treatment vs. placebo among heterozygous individuals; and multiplied by a second time to obtain the odds-ratio of treatment vs. placebo in minor homozygous individuals. […] In a randomized clinical trial, genotype and treatment are independent by design."}
{"smiles": "CC[C@H](C)C(=O)O[C@H]1C[C@H](O)C=C2C=C[C@H](C)[C@H](CC[C@@H](O)C[C@@H](O)CC(=O)O)[C@H]21", "note": "[Pravastatin, pravastatin]", "values": [{"measurement": "OR (synergy index), WOSCOPS, Prava vs Placebo", "setting": "SNP rs304601 (A1 A, A2 G), rec model", "value": 3.93}, {"measurement": "OR (synergy index), WOSCOPS, Prava vs Placebo", "setting": "SNP rs988146 (A1 G, A2 A), add model", "value": 0.80}, {"measurement": "OR (SNP x pravastatin treatment interaction)", "setting": "SNP rs1241967, allele A1=T, model REC, Imputed", "value": 0.5915}, {"measurement": "OR (SNP x pravastatin treatment interaction)", "setting": "SNP rs1247340, allele A1=C, model ADD, Imputed", "value": 1.51}, {"measurement": "OR (SNP x pravastatin treatment interaction)", "setting": "SNP rs1247340, allele A1=C, model DOM, Imputed", "value": 1.767}, {"measurement": "OR (SNP x pravastatin treatment interaction)", "setting": "SNP rs1247341, allele A1=C, model ADD, Imputed", "value": 1.524}, {"measurement": "OR (SNP x pravastatin treatment interaction)", "setting": "SNP rs1247341, allele A1=C, model DOM, Imputed", "value": 1.795}, {"measurement": "OR (SNP x pravastatin treatment interaction)", "setting": "SNP rs1247343, allele A1=C, model DOM, Imputed", "value": 1.681}, {"measurement": "OR (SNP x pravastatin treatment interaction)", "setting": "SNP rs1335721, allele A1=A, model REC, Imputed", "value": 0.5999}, {"measurement": "OR (SNP x pravastatin treatment interaction)", "setting": "SNP rs1336382, allele A1=T, model DOM, Imputed", "value": 1.458}, {"measurement": "OR (SNP x pravastatin treatment interaction)", "setting": "SNP rs1336383, allele A1=T, model DOM, Imputed", "value": 1.458}, {"measurement": "OR (SNP x pravastatin treatment interaction)", "setting": "SNP rs1336407, allele A1=T, model DOM, Imputed", "value": 1.458}, {"measurement": "OR (SNP x pravastatin treatment interaction)", "setting": "SNP rs1336409, allele A1=T, model DOM, Imputed", "value": 1.458}, {"measurement": "OR (SNP x pravastatin treatment interaction)", "setting": "SNP rs1336596, allele A1=A, model DOM, Imputed", "value": 0.6728}, {"measurement": "OR (SNP x pravastatin treatment interaction)", "setting": "SNP rs1355715, allele A1=T, model ADD, Imputed", "value": 0.5755}, {"measurement": "OR (SNP x pravastatin treatment interaction)", "setting": "SNP rs1363273, allele A1=C, model REC, Imputed", "value": 0.5817}, {"measurement": "OR (SNP x pravastatin treatment interaction)", "setting": "SNP rs1373601, allele A1=A, model DOM, Imputed", "value": 0.5287}, {"measurement": "OR (SNP x pravastatin treatment interaction)", "setting": "SNP rs1395748, allele A1=G, model DOM, Imputed", "value": 0.6603}, {"measurement": "OR (SNP x pravastatin treatment interaction)", "setting": "SNP rs1414865, allele A1=T, model DOM, Imputed", "value": 1.433}, {"measurement": "OR (SNP x pravastatin treatment interaction)", "setting": "SNP rs1414873, allele A1=A, model DOM, Imputed", "value": 1.458}, {"measurement": "OR (SNP x pravastatin treatment interaction)", "setting": "SNP rs1414876, allele A1=C, model DOM, Imputed", "value": 1.458}, {"measurement": "OR (SNP x pravastatin treatment interaction)", "setting": "SNP rs1424643, allele A1=G, model ADD, Imputed", "value": 1.554}, {"measurement": "OR (SNP x pravastatin treatment interaction)", "setting": "SNP rs1424643, allele A1=G, model DOM, Imputed", "value": 1.592}, {"measurement": "OR (SNP x pravastatin treatment interaction)", "setting": "SNP rs1424648, allele A1=T, model DOM, Imputed", "value": 1.619}, {"measurement": "OR (synergy index), WOSCOPS, Prava vs Placebo", "setting": "SNP rs1559557 (A1 G, A2 A), add model", "value": 1.53}, {"measurement": "OR (synergy index), WOSCOPS, Prava vs Placebo", "setting": "SNP rs1877527 (A1 G, A2 A), add model", "value": 0.77}, {"measurement": "OR (synergy index), WOSCOPS, Prava vs Placebo", "setting": "SNP rs2132241 (A1 A, A2 G), add model", "value": 0.70}, {"measurement": "OR (synergy index), WOSCOPS, Prava vs Placebo", "setting": "SNP rs2270588 (A1 G, A2 A), add model", "value": 0.75}, {"measurement": "OR (synergy index), WOSCOPS, Prava vs Placebo", "setting": "SNP rs9325191 (A1 A, A2 C), add model", "value": 0.69}, {"measurement": "OR (synergy index), WOSCOPS, Prava vs Placebo", "setting": "SNP rs9346951 (A1 A, A2 G), add model", "value": 1.25}, {"measurement": "OR (synergy index), WOSCOPS, Prava vs Placebo", "setting": "SNP rs10787944 (A1 G, A2 A), dom model", "value": 1.45}, {"measurement": "OR (SNP x pravastatin treatment interaction)", "setting": "SNP rs11959206, allele A1=A, model REC, Imputed", "value": 0.5862}, {"measurement": "OR (SNP x pravastatin treatment interaction)", "setting": "SNP rs12038613, allele A1=C, model REC, Imputed", "value": 0.5999}, {"measurement": "OR (SNP x pravastatin treatment interaction)", "setting": "SNP rs12151417, allele A1=T, model DOM, Imputed", "value": 1.573}, {"measurement": "OR (SNP x pravastatin treatment interaction)", "setting": "SNP rs12153185, allele A1=T, model DOM, Imputed", "value": 0.6973}, {"measurement": "OR (SNP x pravastatin treatment interaction)", "setting": "SNP rs12182651, allele A1=T, model DOM, Imputed", "value": 2.24}, {"measurement": "OR (SNP x pravastatin treatment interaction)", "setting": "SNP rs12235345, allele A1=C, model DOM, Imputed", "value": 1.42}, {"measurement": "OR (SNP x pravastatin treatment interaction)", "setting": "SNP rs12324786, allele A1=T, model REC, Imputed", "value": 2.796}, {"measurement": "OR (SNP x pravastatin treatment interaction)", "setting": "SNP rs12336958, allele A1=G, model DOM, Imputed", "value": 1.46}, {"measurement": "OR (SNP x pravastatin treatment interaction)", "setting": "SNP rs12407412, allele A1=C, model ADD, Imputed", "value": 1.382}, {"measurement": "OR (SNP x pravastatin treatment interaction)", "setting": "SNP rs12407412, allele A1=C, model DOM, Imputed", "value": 1.401}, {"measurement": "OR (SNP x pravastatin treatment interaction)", "setting": "SNP rs12418971, allele A1=C, model REC, Imputed", "value": 1.699}, {"measurement": "OR (SNP x pravastatin treatment interaction)", "setting": "SNP rs12420184, allele A1=G, model DOM, Imputed", "value": 0.6518}, {"measurement": "OR (SNP x pravastatin treatment interaction)", "setting": "SNP rs12433968, allele A1=T, model DOM, Imputed", "value": 0.7213}, {"measurement": "OR (SNP x pravastatin treatment interaction)", "setting": "SNP rs12445477, allele A1=A, model DOM, Imputed", "value": 0.4063}, {"measurement": "OR (SNP x pravastatin treatment interaction)", "setting": "SNP rs12447191, allele A1=T, model ADD, Genotyped", "value": 0.6489}, {"measurement": "OR (SNP x pravastatin treatment interaction)", "setting": "SNP rs12447191, allele A1=T, model DOM, Genotyped", "value": 0.5081}, {"measurement": "OR (SNP x pravastatin treatment interaction)", "setting": "SNP rs12465349, allele A1=A, model REC, Imputed", "value": 1.587}, {"measurement": "OR (SNP x pravastatin treatment interaction)", "setting": "SNP rs12509758, allele A1=C, model DOM, Imputed", "value": 1.856}, {"measurement": "OR (SNP x pravastatin treatment interaction)", "setting": "SNP rs12515472, allele A1=A, model DOM, Imputed", "value": 1.531}, {"measurement": "OR (SNP x pravastatin treatment interaction)", "setting": "SNP rs12548906, allele A1=G, model ADD, Imputed", "value": 1.496}, {"measurement": "OR (SNP x pravastatin treatment interaction)", "setting": "SNP rs12596240, allele A1=G, model DOM, Imputed", "value": 0.6708}, {"measurement": "OR (SNP x pravastatin treatment interaction)", "setting": "SNP rs12618781, allele A1=A, model DOM, Imputed", "value": 0.5446}, {"measurement": "OR (SNP x pravastatin treatment interaction)", "setting": "SNP rs12678600, allele A1=A, model DOM, Imputed", "value": 0.6479}, {"measurement": "OR (SNP x pravastatin treatment interaction)", "setting": "SNP rs12692229, allele A1=T, model ADD, Imputed", "value": 1.315}, {"measurement": "OR (SNP x pravastatin treatment interaction)", "setting": "SNP rs12713324, allele A1=T, model DOM, Imputed", "value": 1.584}, {"measurement": "OR (SNP x pravastatin treatment interaction)", "setting": "SNP rs12719415, allele A1=T, model DOM, Imputed", "value": 0.6887}, {"measurement": "OR (SNP x pravastatin treatment interaction)", "setting": "SNP rs12820589, allele A1=G, model ADD, Imputed", "value": 1.758}]}
